In US20040248887A1, “Inhibitors of cathepsin S” (IRM LLC, priority 2003, published 2004) one finds Ki data, which are given here for 27 compounds.

As usually defined, the Ki is a dissociation constant, usually derived from enzyme kinetics or from competition with a known ligand.

Cathepsin S, sequence (P25774 115-331, species assumed): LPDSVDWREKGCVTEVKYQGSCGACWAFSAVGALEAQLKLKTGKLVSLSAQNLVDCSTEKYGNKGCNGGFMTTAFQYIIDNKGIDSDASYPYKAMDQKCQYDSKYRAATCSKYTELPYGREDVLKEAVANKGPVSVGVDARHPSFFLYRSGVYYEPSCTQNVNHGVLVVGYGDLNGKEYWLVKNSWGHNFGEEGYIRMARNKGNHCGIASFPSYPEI

This experiment addresses Cathepsin S (Homo sapiens, UniProt P25774). The experiment is described as follows: Cathepsin S inhibition, fluorogenic peptide substrate kinetic assay. The format is biochemical. The settings on record: Table II; Cathepsin S inhibition constant, pH5.5; read-out: Ki Cat. S. In outline: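 Reactions were started with 50 μM (final) acetyl-His-Pro-Val-Lys-aminocarbamoylcoumarin, and hydrolysis was followed by fluorescence (ex 380/em 450 nm). Apparent inhibition constants from enzyme progress curves were converted to Ki for competitive inhibitors using substrate concentration and Km.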
Regarding `O=C(NCCN1CCc2cc(F)ccc21)[C@H](CC1CCCCC1)NS(=O)(=O)c1scc(Br)c1Cl` [Compound 224, (S)-2-(4-Bromo-3-chloro-thiophene-2-sulfonylamino)-3-cyclohexyl-N-[2-(5-fluoro-2,3-dihydro-indol-1-yl)-ethyl]-propionamide], the inhibition constant Ki is less than 1000 nM.

For the compound `C[C@@H](CN1CCc2cc(F)ccc21)NC(=O)[C@H](CC1CCCCC1)NC(=O)OCc1ccccc1` [Compound 174, {2-Cyclohexyl-1-(S)-[2-(5-fluoro-2,3-dihydro-indol-1-yl)-1-(S)-methyl-ethylcarbamoyl]-ethyl}-carbamic acid benzyl ester], the Ki is less than 100 nM.

For the compound `CNS(=O)(=O)c1ccc(NC[C@H](C)NC(=O)[C@H](CC2CCCCC2)NC(=O)c2ccc(-c3cccc(F)c3)o2)cc1` [Compound 118, 5-(3-Fluoro-phenyl)-furan-2-carboxylic acid {2-cyclohexyl-1-(S)-[1-(S)-methyl-2-(4-methylsulfamoyl-phenylamino)-ethylcarbamoyl]-ethyl}-amide], the inhibition constant (Ki) is less than 100 nM.

Regarding `C[C@@H](CNc1cccc(S(C)(=O)=O)c1)NC(=O)[C@H](CC1CCCCC1)NC(=O)c1ccc(-c2ccc(F)cc2)o1` [Compound 106, 5-(4-Fluoro-phenyl)-furan-2-carboxylic acid {2-cyclohexyl-1-(S)-[2-(3-methanesulfonyl-phenylamino)-1-(S)-methyl-ethylcarbamoyl]-ethyl}-amide], the inhibition constant (Ki) is less than 100 nM.

With `O=C(NC(C(=O)NC(CO)CN1CCc2cc(F)ccc21)c1ccc(Cl)cc1Cl)c1ccco1` [Compound 212, N-(S)-((3-(5-fluoroindolin-1-yl)-1-hydroxypropan-2-(R)-ylcarbamoyl)(2,4-dichlorophenyl)methyl) furan-2-carboxamide], the Ki was less than 1000 nM.

Turning to `Cc1nnc(-c2cccc(S(=O)(=O)N[C@@H](CC3CCCCC3)C(=O)NCCN3CCc4cc(F)ccc43)c2)o1` [Compound 233, (S)-3-Cyclohexyl-N-[2-(5-fluoro-2,3-dihydro-indol-1-yl)-ethyl]-2-[3-(5-methyl-[1,3,4]oxadiazol-2-yl)-benzenesulfonylamino]-propionamide], the Ki was less than 100 nM.

For the compound `COc1ccc(S(=O)(=O)N2CCC(C(=O)N[C@@H](CC3CCCCC3)C(=O)NCCN3CCc4cc(F)ccc43)CC2)cc1` [Compound 57, 1-(4-Methoxy-benzenesulfonyl)-piperidine-4-carboxylic acid (S)-{2-cyclohexyl-1-[2-(5-fluoro-2,3-dihydro-indol-1-yl)-ethylcarbamoyl]-ethyl}-amide], the Ki is less than 1000 nM.

As for `Cc1cccc(S(=O)(=O)N[C@@H](CC(C)(C)C)C(=O)N[C@@H](C)CN2CCc3cc(F)ccc32)c1` [Compound 265, (S,S)-4,4-Dimethyl-2-(toluene-3-sulfonylamino)-pentanoic acid [2-(5-fluoro-2,3-dihydro-indol-1-yl)-1-methyl-ethyl]-amide], the Ki is less than 100 nM.

Take `C[C@@H](CNc1ccc(OC(F)(F)F)cc1)NC(=O)[C@H](CC1CCCCC1)NC(=O)C1CCOCC1` [Compound 135, Tetrahydropyran-4-carboxylic acid {2-cyclohexyl-1-(S)-[1-(S)-methyl-2-(4-trifluoromethoxy-phenylamino)-ethylcarbamoyl]-ethyl}-amide]: the Ki was less than 100 nM.

As to `COc1cccc(C(=O)N[C@@H](CC2CCCCC2)C(=O)N[C@@H](CC(=O)OCc2ccccc2)CN2CCc3cc(F)ccc32)c1` [Compound 161, 3-(S)-[3-Cyclohexyl-2-(S)-(3-methoxy-benzoylamino)-propionylamino]-4-(5-fluoro-2,3-dihydro-indol-1-yl)-butyric acid benzyl ester], the inhibition constant (Ki) is less than 100 nM.

Take `C[C@@H](CNc1ccc(OC(F)(F)F)cc1)NC(=O)[C@H](CC1CCCC1)NC(=O)O[C@H]1CCOC1` [Compound 192, (S,S)-{2-Cyclopentyl-1-[1-methyl-2-(4-trifluoromethoxy-phenylamino)-ethylcarbamoyl]-ethyl}-carbamic acid tetrahydrofuran-3-(S)-yl ester]: the Ki was less than 100 nM.

Take `O=C(N[C@@H](Cc1cccc(Cl)c1)C(=O)NCCN1CCc2cc(F)ccc21)c1ccc(-c2cccc(C(F)(F)F)c2)o1` [Compound 196, N-((S)-1-(2-(5-fluoroindolin-1-yl)ethylcarbamoyl)-2-(3-chlorophenyl)ethyl)-5-(3-(trifluoromethyl)phenyl)furan-2-carboxamide]: the Ki is less than 1000 nM.

Regarding `COc1cccc(C(=O)N[C@@H](CC(C)(C)C)C(=O)N[C@@H](CC(=O)OC(C)(C)C)CN2CCc3cc(F)ccc32)c1` [Compound 160, 4-(5-Fluoro-2,3-dihydro-indol-1-yl)-3-(S)-[2-(S)-(3-methoxy-benzoylamino)-4,4-dimethyl-pentanoylamino]-butyric acid tert-butyl ester], the Ki was less than 100 nM.

As for `COc1cccc(C(=O)N[C@@H](CCC2CCCCC2)C(=O)NCCN2CCc3ccc(F)cc32)c1` [Compound 10, (S)-N-{3-Cyclohexyl-1-[2-(6-fluoro-2,3-dihydro-indol-1-yl)-ethylcarbamoyl]-propyl}-3-methoxy-benzamide], the inhibition constant Ki is less than 10000 nM.

For the compound `O=C(C[C@@H](CN1CCc2cc(F)ccc21)NC(=O)[C@H](CC1CCCCC1)NC(=O)OCc1ccccc1)OCc1ccccc1` [Compound 168, 3-(S)-(2-(S)-Benzyloxycarbonylamino-3-cyclohexyl-propionylamino)-4-(5-fluoro-2,3-dihydro-indol-1-yl)-butyric acid benzyl ester], the inhibitory constant (Ki) was less than 100 nM.

For the compound `COc1ccc(N[C@H]2CCCC[C@H]2NC(=O)[C@H](CC(C)C)NC(=O)c2cccc(C)c2)cc1` (mixture of isomers) [Compound 33, N-{1-(S)-[cis-2-(4-Methoxy-phenylamino)-cyclohexylcarbamoyl]-3-methyl-butyl}-3-methyl-benzamide], the inhibition constant Ki is less than 1000 nM.

Take `O=C(NCCN1CCc2cc(F)ccc21)[C@H](CC1CCCCC1)NS(=O)(=O)c1cc(Cl)c(Cl)s1` [Compound 258, (S)-3-Cyclohexyl-2-(4,5-dichloro-thiophene-2-sulfonylamino)-N-[2-(5-fluoro-2,3-dihydro-indol-1-yl)-ethyl]-propionamide]: the inhibition constant (Ki) was less than 1000 nM.

Turning to `C[C@@H](CNc1ccc(C#N)cc1)NC(=O)[C@H](CC1CCCCC1)NC(=O)c1ccc(-c2cccc(F)c2)o1` [Compound 93, 5-(3-Fluoro-phenyl)-furan-2-carboxylic acid {1-(S)-[2-(4-cyano-phenylamino)-1-(S)-methyl-ethylcarbamoyl]-2-cyclohexyl-ethyl}-amide], the inhibition constant (Ki) is less than 1000 nM.

In the case of `Cc1cc(C(=O)N[C@@H](CC2CCCCC2)C(=O)NCCN2CCc3cc(F)ccc32)c(C(F)(F)F)o1` [Compound 78, 5-Methyl-2-trifluoromethyl-furan-3-carboxylic acid (S)-{2-cyclohexyl-1-[2-(5-fluoro-2,3-dihydro-indol-1-yl)-ethylcarbamoyl]-ethyl}-amide], the inhibition constant (Ki) is less than 100 nM.

`Cc1cccc(C(=O)N[C@@H](CC(C)C)C(=O)N[C@@H](CCNC(N)=O)CN2CCc3cc(F)ccc32)c1` [Compound 45, (S,S)-N-{1-[1-(5-Fluoro-2,3-dihydro-indol-1-ylmethyl)-3-ureido-propylcarbamoyl]-3-methyl-butyl}-3-methyl-benzamide]: the Ki is less than 1000 nM.

As for `C[C@@H](CNc1ccc(OC(F)(F)F)cc1)NC(=O)[C@H](CC1CCCCC1)NC(=O)c1ccc(-c2ccc[n+]([O-])c2)o1` [Compound 144, 5-(1-Oxy-pyridin-3-yl)-furan-2-carboxylic acid {2-cyclohexyl-1-(S)-[1-(S)-methyl-2-(4-trifluoromethoxy-phenylamino)-ethylcarbamoyl]-ethyl}-amide], the Ki was less than 100 nM.

Regarding `COc1ccc(N[C@@H]2CCCC[C@H]2NC(=O)[C@H](CC(C)C)NC(=O)c2cccc(C)c2)cc1` (mixture of isomers) [Compound 34, N-{1-(S)-[trans-2-(4-Methoxy-phenylamino)-cyclohexylcarbamoyl]-3-methyl-butyl}-3-methyl-benzamide], the Ki is less than 1000 nM.

As for `COc1cccc(S(=O)(=O)N[C@@H](CC2CCCCC2)C(=O)NCCN2CCc3cc(F)ccc32)c1` [Compound 245, (S)-3-Cyclohexyl-N-[2-(5-fluoro-2,3-dihydro-indol-1-yl)-ethyl]-2-(3-methoxy-benzenesulfonylamino)-propionamide], the inhibition constant (Ki) was less than 1000 nM.

`C[C@@H](CN1c2ccc(F)cc2CC1(C)C)NC(=O)[C@H](CC1CCCCC1)NC(=O)C1CCOCC1` [Compound 139, Tetrahydropyran-4-carboxylic acid {2-cyclohexyl-1-(S)-[2-(5-fluoro-2,2-dimethyl-2,3-dihydro-indol-1-yl)-1-(S)-methyl-ethylcarbamoyl]-ethyl}-amide]: the inhibition constant Ki was less than 100 nM.

Turning to `C[C@@H](CNc1ccc(OC(F)(F)F)cc1)NC(=O)[C@H](CC1CCCCC1)NC(=O)c1cc(-c2ccc(F)cc2)no1` [Compound 146, 3-(4-Fluoro-phenyl)-isoxazole-5-carboxylic acid {2-cyclohexyl-1-(S)-[1-(S)-methyl-2-(4-trifluoromethoxy-phenylamino)-ethylcarbamoyl]-ethyl}-amide], the Ki was less than 100 nM.

With `CC(=O)Nc1cccc(NC[C@H](C)NC(=O)[C@H](CC2CCCCC2)NC(=O)c2ccc(-c3cccc(F)c3)o2)c1` [Compound 134, 5-(3-Fluoro-phenyl)-furan-2-carboxylic acid {1-(S)-[2-(3-acetylamino-phenylamino)-1-(S)-methyl-ethylcarbamoyl]-2-cyclohexyl-ethyl}-amide], the Ki was less than 100 nM.

As for `C[C@@H](CNc1ccccc1F)NC(=O)[C@H](CC1CCCCC1)NC(=O)c1ccc(-c2cccc(F)c2)o1` [Compound 95, 5-(3-Fluoro-phenyl)-furan-2-carboxylic acid {2-cyclohexyl-1-(S)-[2-(2-fluoro-phenylamino)-1-(S)-methyl-ethylcarbamoyl]-ethyl}-amide], the Ki was less than 100 nM.
